These results are taken from ChEMBL document CHEMBL4706534, “1,2,3-Triazole-containing hybrids with potential antibacterial activity against methicillin-resistant Staphylococcus aureus (MRSA)” (Eur J Med Chem, 2020).

The subject of data set [1] is Enterococcus. In words: Antibacterial activity against Vancomycin-resistant enterococcus 2 incubated for 16 hrs by agar dilution method. Format: functional.
Data set [2] has as its system Enterococcus. In words: Antibacterial activity against Vancomycin-resistant enterococcus 1 incubated for 16 hrs by agar dilution method. The class given is functional.
Another data set concerns Klebsiella pneumoniae. In words: Antibacterial activity against Klebsiella pneumoniae. The class given is functional.
The next data set deals with Klebsiella aerogenes. Briefly: Antibacterial activity against Enterobacter aerogenes. Format: functional.
Another data set relates to Enterococcus faecium. Briefly: Antibacterial activity against Enterococcus faecium. Format: functional.
For the next data set, the system named is Proteus vulgaris. In words: Antibacterial activity against Proteus vulgaris. The class given is functional.
Data set [3] has as its system Staphylococcus aureus. Briefly: Antibacterial activity against methicillin-sensitive Staphylococcus aureus. The class given is functional.
Data set [4] concerns Staphylococcus aureus. Briefly: Antibacterial activity against methicillin-resistant Staphylococcus aureus. The class given is functional.
Data set [5] concerns Staphylococcus epidermidis. Briefly: Antibacterial activity against methicillin-sensitive Staphylococcus epidermidis. Format: functional.
Another data set concerns Providencia rettgeri. Briefly: Antibacterial activity against Providencia rettgeri. The class given is functional.
In a further data set the test system is Enterococcus faecalis. Briefly: Antibacterial activity against Enterococcus faecalis. Format: functional.
A further data set concerns Enterobacter cloacae. In words: Antibacterial activity against Enterobacter cloacae. The class given is functional.
Data set [6] can be described thus: Cytotoxicity against CHO cells. Format: cell-based, Cricetulus griseus. The settings on record: chinese hamster.
The next data set has as its system Escherichia coli. In words: Antibacterial activity against Escherichia coli. The class given is functional.
The subject of data set [7] is Staphylococcus aureus. In words: Antibacterial activity against Staphylococcus aureus ATCC 29213. The class given is functional, organism-based.
For data set [8], the system named is Staphylococcus aureus. Briefly: Antibacterial activity against Methicillin-resistant Staphylococcus aureus ATCC 33591. The class given is functional, organism-based.
The subject of data set [9] is Staphylococcus aureus. In words: Potency index, ratio of linezolid MIC to compound MIC for antibacterial activity against methicillin-resistant Staphylococcus aureus ATCC 33591. The class given is functional.
The test system of data set [10] is Staphylococcus aureus. Briefly: Antibacterial activity against methicillin-resistant Staphylococcus aureus ATCC 33591 incubated for 18 hrs. Format: functional.
Data set [11] concerns Staphylococcus aureus. Briefly: Antibacterial activity against methicillin-susceptible Staphylococcus aureus ATCC 25923 incubated for 18 hrs. The class given is functional.
The subject of data set [12] is Staphylococcus aureus. In words: Antibacterial activity against Methicillin-resistant Staphylococcus aureus ATCC 510019 incubated for 18 to 24 hrs by CLSI-based microbroth dilution method. The class given is functional. The settings on record: time 18-24 hrs. For orientation: Broth dilution looks for growth in wells or tubes with falling amounts of substance.
Data set [13] concerns Staphylococcus aureus. Briefly: Antibacterial activity against Methicillin-resistant Staphylococcus aureus ATCC 60202 incubated for 18 to 24 hrs by CLSI-based microbroth dilution method. Format: functional. The note with it: time 18-24 hrs.
The test system of data set [14] is Staphylococcus aureus. In words: Antibacterial activity against Methicillin-resistant Staphylococcus aureus ATCC 405055 incubated for 18 to 24 hrs by CLSI-based microbroth dilution method. Format: functional. The settings on record: time 18-24 hrs.
The subject of data set [15] is Staphylococcus aureus. In words: Antibacterial activity against Methicillin-resistant Staphylococcus aureus ATCC 51033 incubated for 18 to 24 hrs by CLSI-based microbroth dilution method. The note with it: time 18-24 hrs. The class given is functional.
For data set [16], the system named is Staphylococcus aureus. Briefly: Antibacterial activity against Methicillin-resistant Staphylococcus aureus ATCC 51599-2 incubated for 18 to 24 hrs by CLSI-based microbroth dilution method. Format: functional. The note with it: time 18-24 hrs.
Data set [17] has as its system Staphylococcus aureus. Briefly: Antibacterial activity against Methicillin-resistant Staphylococcus aureus ATCC 52351-2 incubated for 18 to 24 hrs by CLSI-based microbroth dilution method. Format: functional. The note with it: time 18-24 hrs.
The subject of data set [18] is Staphylococcus aureus. In words: Antibacterial activity against Methicillin-resistant Staphylococcus aureus ATCC 51345 incubated for 18 to 24 hrs by CLSI-based microbroth dilution method. The class given is functional. The note with it: time 18-24 hrs.
Data set [19] deals with Staphylococcus aureus. In words: Antibacterial activity against Methicillin-resistant Staphylococcus aureus ATCC 43300 incubated for 18 to 24 hrs by CLSI-based microbroth dilution method. The class given is functional. The settings on record: time 18-24 hrs.
Data set [20] relates to Staphylococcus aureus. In words: Antibacterial activity against Methicillin-resistant Staphylococcus aureus ATCC 52056 incubated for 18 to 24 hrs by CLSI-based microbroth dilution method. The class given is functional. The note with it: time 18-24 hrs.
Data set [21] concerns Staphylococcus aureus. In words: Resistance index, ratio of MIC for antibacterial activity against Staphylococcus aureus ATCC 43300 incubated for 18 hrs to MIC for antibacterial activity against Staphylococcus aureus ATCC 25923 incubated for 18 hrs. The class given is functional.
For data set [22], the system named is Staphylococcus aureus. Briefly: Antibacterial activity against methicillin-resistant Staphylococcus aureus ATCC 43300 incubated for 18 hrs. The class given is functional.
The subject of data set [23] is Staphylococcus aureus. Briefly: Antibacterial activity against wild type Methicillin-resistant Staphylococcus aureus by CLSI-based microdilution method. Format: functional.
Data set [24] deals with Staphylococcus aureus. Briefly: Antibacterial activity against Methicillin-resistant Staphylococcus aureus USA300 by CLSI-based microdilution method. Format: functional.
Data set [25] concerns Staphylococcus aureus. In words: Antibacterial activity against Methicillin-resistant Staphylococcus aureus USA100 by CLSI-based microdilution method. Format: functional.
Data set [26] relates to Staphylococcus aureus. In words: Antibacterial activity against Methicillin-resistant Staphylococcus aureus USA600 by CLSI-based microdilution method. Format: functional.
Data set [27] has as its system Staphylococcus aureus. Briefly: Antibacterial activity against Methicillin-resistant Staphylococcus aureus USA200 by CLSI-based microdilution method. Format: functional.
The subject of data set [28] is Staphylococcus aureus. Briefly: Antibacterial activity against Staphylococcus aureus C463 incubated for 18 hrs by CLSI-based two fold agar dilution method. The class given is functional.

SMILES strings stand for the structures. ≈ marks a conversion by molar mass, not a printed value.

A word on the MIC: it is the lowest concentration that inhibits growth of the organism. High values mean a less susceptible organism, low ones a more susceptible organism. Regarding `CC(C)C[C@@H](N)C(=O)N[C@H]1C(=O)N[C@@H](CC(N)=O)C(=O)N[C@H]2C(=O)N[C@H]3C(=O)N[C@H](C(=O)N[C@H](C(=O)O)c4cc(O)cc(O)c4-c4cc3ccc4O)[C@H](O)c3ccc(c(Cl)c3)Oc3cc2cc(c3O[C@@H]2O[C@H](CO)[C@@H](O)[C@H](O)[C@H]2O[C@H]2C[C@](C)(N)[C@H](O)[C@H](C)O2)Oc2ccc(cc2Cl)[C@H]1O`, the minimum inhibitory concentration (MIC) in the data set with Enterococcus [1] and in the data set with Enterococcus [2] was more than 50 µg/mL throughout.
The CC50 is the concentration that lowers cell viability or growth by half. High values mean lower toxicity to the cells, low ones greater toxicity to the cells. Turning to `COc1c(N2C[C@@H]3CCCN(C(=O)Cn4cc(CN5C(=O)C(=O)c6ccccc65)nn4)[C@@H]3C2)c(F)cc2c(=O)c(C(=O)O)cn(C3CC3)c12`, the minimal inhibitory concentration (MIC) was not above 0.03 µg/mL against Klebsiella pneumoniae; not above 0.03 µg/mL in the data set with Klebsiella aerogenes; not above 0.03 µg/mL in the data set with Enterococcus faecium; not above 0.03 µg/mL with Proteus vulgaris; not above 0.03 µg/mL with Staphylococcus aureus [3]; 1 µg/mL (≈ 1.49 µM) in the data set with Staphylococcus aureus [4]. In addition, the minimal inhibitory concentration (MIC) (in data set [5]; in the data set on Providencia rettgeri; against Enterococcus faecalis; against Enterobacter cloacae; in the data set with Escherichia coli) was not above 0.03 µg/mL in each case. Moreover, in data set [6], the 50% cytotoxic concentration (CC50) amounted to 64 µg/mL (≈ 95.6 µM).
One may read the IC50 as the point on the concentration scale where inhibition reaches its midpoint. A low value points to greater potency. As to `COc1c(Cn2cc(-c3nnc(-c4ccccc4)o3)nn2)c(OC)c(OC)c(OC)c1OC`, the half-maximal inhibitory concentration (IC50) with Staphylococcus aureus [7] worked out at 7 µg/mL (≈ 15.4 µM); in the data set with Staphylococcus aureus [8], 6.4 µg/mL (≈ 14.1 µM).
Regarding `CC(=O)NC[C@H]1CN(c2ccc(-n3cc(-c4ccccn4)nn3)c(F)c2)C(=O)O1`, in the data set with Staphylococcus aureus [9], the Ratio was 4. Moreover, the MIC was determined as 0.5 µg/mL (≈ 1.26 µM) with Staphylococcus aureus [10] and 2 µg/mL (≈ 5.05 µM) with Staphylococcus aureus [11].
On to `CC(=O)NC[C@H]1CN(c2ccc(-n3cc(-c4ncccn4)nn3)c(F)c2)C(=O)O1`, for which the Ratio with Staphylococcus aureus [9] stood at 4. Also, the results for the minimum inhibitory concentration (MIC) against Staphylococcus aureus [10] and against Staphylococcus aureus [11] were 0.5 µg/mL (≈ 1.26 µM) and 2 µg/mL (≈ 5.03 µM), respectively.
With `Cc1nc(C)c(COc2ccc(N3C[C@H](Cn4ccnn4)OC3=O)cc2F)nc1C`, the MIC against Staphylococcus aureus [12], against Staphylococcus aureus [13], against Staphylococcus aureus [14], against Staphylococcus aureus [15], against Staphylococcus aureus [16] and with Staphylococcus aureus [17] was 4 µg/mL (≈ 9.7 µM) in each case. Besides, the MIC against Staphylococcus aureus [18], against Staphylococcus aureus [19] and in the data set with Staphylococcus aureus [20] was 4 µg/mL (≈ 9.7 µM) in each case.
With `NC[C@H]1O[C@@H](O[C@@H](Cc2cn(CCCCCCCCCCOc3ccc(C(=O)c4ccccc4)cc3)nn2)[C@H]2O[C@@H](n3ccc(=O)[nH]c3=O)[C@H](O)[C@@H]2O)[C@H](O)[C@@H]1O.O=C(O)C(F)(F)F`, the Ratio in the data set with Staphylococcus aureus [21] was 0.5. This molecule showed an MIC in the data set with Staphylococcus aureus [22] of 8 µg/mL.
As for `NC[C@@H]1O[C@H](O[C@H]2[C@@H](O)[C@H](O[C@@H]3[C@@H](O)[C@H](N)C[C@H](N)[C@H]3O[C@H]3O[C@H](CN)[C@@H](O)[C@H](O)[C@H]3N)O[C@@H]2Cn2cc(COCCCCCCCCOCc3cn(C[C@H]4O[C@@H](O[C@@H]5[C@@H](O)[C@H](N)C[C@H](N)[C@H]5O[C@H]5O[C@H](CN)[C@@H](O)[C@H](O)[C@H]5N)[C@H](O)[C@@H]4O[C@H]4O[C@@H](CN)[C@@H](O)[C@H](O)[C@H]4N)nn3)nn2)[C@H](N)[C@@H](O)[C@@H]1O`, the MIC with Staphylococcus aureus [23], in the data set with Staphylococcus aureus [24], in the data set with Staphylococcus aureus [25], against Staphylococcus aureus [26] and with Staphylococcus aureus [27] was 25 µg/mL (≈ 16.6 µM) throughout.
`Cc1nc(C)c(COc2ccc(N3C[C@H](Cn4ccnn4)OC3=O)cc2)nc1C`: the MIC in the data set on Staphylococcus aureus [12], against Staphylococcus aureus [13], against Staphylococcus aureus [14], in the data set on Staphylococcus aureus [15], against Staphylococcus aureus [16] and in the data set with Staphylococcus aureus [17] was 4 µg/mL (≈ 10.1 µM) each time. Further, the minimal inhibitory concentration (MIC) against Staphylococcus aureus [18], with Staphylococcus aureus [19] and with Staphylococcus aureus [20] was 4 µg/mL (≈ 10.1 µM) each time.
For `O=C1CC2CN(c3ccc(N4C[C@H](Cn5ccnn5)OC4=O)cc3F)CC2C1` (stereo partly drawn), the lowest concentration to inhibit growth with Staphylococcus aureus [28] (MIC) was 3.12 µg/mL (≈ 8.1 µM).
